Assay results reported in patent US20040052734A1, “Process for providing a stable crystalline form of salbutamol” (Boehringer Ingelheim Pharma GmbH & Co. KG, priority 2002, published 2004).
Several values for one entry are separate records, joined by “and”; a condition that tells them apart may be missing. Identical values can stand only once.

Assays:
Type in all cases: physicochemical
[1] = Isothermal microcalorimetry (amorphous content / recrystallisation); details: for amorphous amount: micronised, stored in opened TWO-Glass at room temperature (21.5° C., 42% RH)
Experimental: The micronised powder underwent different conditioning settings in a climate chamber (Weiβ Klimatechnik GmbH, Reiskirchen-Lindstruth, Germany). The temperature was set at 25° C. and 40° C. and the relative humidity was varied in a field between 45% and 75%, respectively.
For “dry” conditioning settings the powders were prepared at a temperature of 70° C. in a thermal oven (Heraeus, Hanau, Germany).
The powder was investigated using a Thermal Activity Monitor (Type 2277, Thermometric, Sweden) at 25° C. The samples were weighted into a glass ampoule and a tube was added containing a saturated salt solution. The ampoule was sealed and equilibrated in the calorimeter for 5 min before lowering it into the measuring site.

[2] = Powder X-ray diffraction at different temperatures under vacuum; details: amorphous (produced by freeze-drying)
Experimental: The Powder X-Ray Diffraction (Bruker, Rheinstetten, Germany) patterns were acquired at different temperatures using Cu-K α radiation (λ=1.5406 Å). The data were collected over an angular range of 2-40°2θ using a step size of 0,014°2θ and a step time of 2 sec.

[3] = Recording of humidity (sorption behaviour of micronised, wrapped powder); details: unconditioned, stored at 55% RH
Experimental: Using a humidity sensor (Ebro, Ingolstadt, Germany) the sorption behaviour of the micronised and wrapped powder was measured. With the help of a humidity sensor it is possible to observe the sorption behaviour of the micronised, in a PE-bag wrapped, powder. Approx. 30 g of the freshly grinded substance are wrapped in a PE-bag together with a humidity sensor and afterwards closed.

[4] = Particle size analysis by powder laser diffraction (HELIOS, RODOS dry powder feeder)
Experimental: Micronised powders were prepared with a MC Jetmill 50 (Jetpharma, Balerna, Switzerland). The micronised powder underwent different conditioning settings in a climate chamber ([…] GmbH, […], Germany). The temperature was set at 25° C. and 40° C. and the relative humidity was varied in a field between 45% and 75%, respectively. For “dry” conditioning settings the powders were prepared at a temperature of 70° C. in a thermal oven (Heraeus, Hanau, Germany). […] Samples were introduced through the RODOS dry powder feeder. The supply pressure of the injector was at 3 bar.

[5] = Table 1 batch, micronised powder, before conditioning
[6] = Table 2 batch, micronised powder, before conditioning
[7] = micronised powder conditioned 5 hours by 70° C. (dry)

CC(C)(C)NC[C@H](O)c1ccc(O)c(CO)c1 (racemic) [salbutamol sulphate]
recrystallisation after dry conditioning ([1]; 70° C. for 5 hours): does not lead to recrystallisation | reduction of the amorphous fraction ([1]; conditioning at 25° C. and 45% RH for 24 hours): 2.5% | crystallinity after conditioning ([1]; five hours of conditioning at 40° C. and 75% RH, partially amorphous powder): complete crystalline material | amorphous content ([1]; initial sample (micronised, before conditioning)): 7.7% | amorphous amount ([1]; after 1st week): 6.5% | amorphous amount ([1]; after 2nd week): 5.4% | amorphous amount ([1]; after 4th week): 4.5% | amorphous content ([1]; unconditioned powder, wrapped, stored four weeks at 21-23° C., approx. 45% RH): < 0.5% | recrystallisation of amorphous material [2]: does not recrystallize under exclusion of humidity | recrystallisation on storage [3]: completely recrystallized within one week | effect of additional conditioning duration on particle size ([4]; 40° C. and 75% RH beyond five hours, storage under same conditions for two weeks): no effect on the particle size | Particle size 10% < [4, 5]: 0.83 μm | Particle size 50% < [4, 5]: 1.94 μm | Particle size 90% < [4, 5]: 4.53 μm | Particle size 10% < [4, 6]: 0.70 μm | Particle size 50% < [4, 6]: 1.30 μm and 1.53 μm | Particle size 90% < [4, 6]: 3.42 μm | Particle size 10% < ([4]; conditioned 24 h 55% RH 25° C.): 0.78 μm | Particle size 50% < ([4]; conditioned 24 h 55% RH 25° C.): 1.66 μm | Particle size 90% < ([4]; conditioned 24 h 55% RH 25° C.): 3.56 μm | Particle size 10% < ([4]; conditioned 24 h 55% RH 40° C.): 0.79 μm | Particle size 50% < ([4]; conditioned 24 h 55% RH 40° C.): 1.68 μm | Particle size 90% < ([4]; conditioned 24 h 55% RH 40° C.): 3.59 μm | Particle size 10% < ([4]; conditioned 24 h 65% RH 25° C.): 0.82 μm | Particle size 50% < ([4]; conditioned 24 h 65% RH 25° C.): 1.76 μm | Particle size 90% < ([4]; conditioned 24 h 65% RH 25° C.): 3.67 μm | Particle size 10% < ([4]; conditioned 24 h 65% RH 40° C.): 0.80 μm | Particle size 50% < ([4]; conditioned 24 h 65% RH 40° C.): 1.72 μm | Particle size 90% < ([4]; conditioned 24 h 65% RH 40° C.): 3.64 μm | Particle size 10% < ([4]; conditioned 24 h 75% RH 25° C.): 0.83 μm | Particle size 50% < ([4]; conditioned 24 h 75% RH 25° C.): 1.77 μm | Particle size 90% < ([4]; conditioned 24 h 75% RH 25° C.): 3.69 μm | Particle size 10% < ([4]; conditioned 24 h 75% RH 40° C.): 0.84 μm | Particle size 50% < ([4]; conditioned 24 h 75% RH 40° C.): 1.78 μm | Particle size 90% < ([4]; conditioned 24 h 75% RH 40° C.): 3.69 μm | uncontrolled particle growth in terms of particle diameters ([4]; dry conditioning, then four weeks of storage): up to 16% | Particle size 10% < [4, 7]: 0.82 μm | Particle size 50% < [4, 7]: 1.90 μm | Particle size 90% < [4, 7]: 4.45 μm | particle size on storage without conditioning ([4]; wrapped, stored 21-23° C., approx. 45% RH, up to three months): shows likewise particle growth
